Results reported in patent publication US7276527B2, “5-pyridyl-1,3-azole compounds, process for producing the same and use thereof” (Takeda Pharmaceutical Company Limited, priority 1999, dated 2007).
pIC50: −log10 of the molar value.

tested on: not given; assay: not given; details: not given

SMILES	melting point [°C]
Cc1cccc(-c2nc(-c3ccccc3Cl)sc2-c2ccnc(NCc3ccccc3)c2)c1 [Example Compound 19-14, N-benzyl-N-[4-[2-(2-chlorophenyl)-4-(3-methylphenyl)-1,3-thiazol-5-yl]-2-pyridyl]amine]	84 to 86
Cc1cccc(-c2nc(-c3ccccc3Cl)sc2-c2ccnc(NCCc3ccccc3)c2)c1 [Example Compound 19-15, N-[4-[2-(2-chlorophenyl)-4-(3-methylphenyl)-1,3-thiazol-5-yl]-2-pyridyl]-N-(2-phenylethyl)amine]	113 to 114
Cc1cccc(-c2nc(-c3ccccc3Cl)sc2-c2ccnc(NCCCc3ccccc3)c2)c1 [Example Compound 19-16, N-[4-[2-(2-chlorophenyl)-4-(3-methylphenyl)-1,3-thiazol-5-yl]-2-pyridyl]-N-(3-phenylpropyl)amine]	101 to 102
CSc1ccc(-c2nc(-c3cccc(C)c3)c(-c3ccnc(NCc4ccccc4)c3)s2)cc1 [Example Compound 19-17, N-benzyl-N-[4-[4-(3-methylphenyl)-2-(4-methylthiophenyl)-1,3-thiazol-5-yl]-2-pyridyl]amine]	134 to 136
CSc1ccc(-c2nc(-c3cccc(C)c3)c(-c3ccnc(NCCc4ccccc4)c3)s2)cc1 [Example Compound 19-18, N-[4-[4-(3-methylphenyl)-2-(4-methylthiophenyl)-1,3-thiazol-5-yl]-2-pyridyl]-N-(2-phenylethyl)amine]	137 to 139
CSc1ccc(-c2nc(-c3cccc(C)c3)c(-c3ccnc(NCCCc4ccccc4)c3)s2)cc1 [Example Compound 19-19, N-[4-[4-(3-methylphenyl)-2-(4-methylthiophenyl)-1,3-thiazol-5-yl]-2-pyridyl]-N-(3-phenylpropyl)amine]	106 to 107
CSc1ccc(-c2nc(-c3cccc(C)c3)c(-c3ccnc(NCc4ccc5ccccc5c4)c3)s2)cc1 [Example Compound 19-20, N-[4-[4-(3-methylphenyl)-2-(4-methylthiophenyl)-1,3-thiazol-5-yl]-2-pyridyl]-N-(2-naphthylmethyl)amine]	144 to 145
Cc1cccc(-c2nc(-c3ccc(S(C)(=O)=O)cc3)sc2-c2ccnc(NC(=O)CCc3ccccc3)c2)c1 [Example Compound 21-2, N-[4-[4-(3-methylphenyl)-2-(4-methylsulfonylphenyl)-1,3-thiazol-5-yl]-2-pyridyl]-3-phenylpropionamide]	236 to 237
Cc1cccc(-c2nc(-c3ccc(S(C)(=O)=O)cc3)sc2-c2ccnc(NC(=O)c3cccs3)c2)c1 [Example Compound 21-3, N-[4-[4-(3-methylphenyl)-2-(4-methylsulfonylphenyl)-1,3-thiazol-5-yl]-2-pyridyl]-2-thiophenecarboxamide]	199 to 201
Cc1cccc(-c2nc(-c3ccc(S(C)(=O)=O)cc3)sc2-c2ccnc(NC(=O)c3ccc4ccccc4c3)c2)c1 [Example Compound 21-4, N-[4-[4-(3-methylphenyl)-2-(4-methylsulfonylphenyl)-1,3-thiazol-5-yl]-2-pyridyl]-2-naphthamide]	231 to 233
Cc1cccc(-c2nc(-c3ccc(S(C)(=O)=O)cc3)sc2-c2ccnc(NCCCc3ccccc3)c2)c1 [Example Compound 21-6, N-[4-[4-(3-methylphenyl)-2-(4-methylsulfonylphenyl)-1,3-thiazol-5-yl]-2-pyridyl]-N-(3-phenylpropyl) amine]	167 to 168
Cc1cccc(-c2nc(-c3ccc(S(C)(=O)=O)cc3)sc2-c2ccnc(NCc3ccc4ccccc4c3)c2)c1 [Example Compound 21-7, N-[4-[4-(3-methylphenyl)-2-(4-methylsulfonylphenyl)-1,3-thiazol-5-yl]-2-pyridyl]-N-(2-naphthylmethyl)amine]	167 to 168
COc1ccc(CNc2cc(-c3sc(N)nc3-c3cccc(C)c3)ccn2)cc1 [Example Compound 23-1, N-[4-[2-amino-4-(3-methylphenyl)-1,3-thiazol-5-yl]-2-pyridyl]-N-(4-methoxybenzyl)amine]	183 to 184
COc1cccc(CNc2cc(-c3sc(N)nc3-c3cccc(C)c3)ccn2)c1 [Example Compound 23-2, N-[4-[2-amino-4-(3-methylphenyl)-1,3-thiazol-5-yl]-2-pyridyl]-N-(3-methoxybenzyl)amine]	152 to 154
COc1ccccc1CNc1cc(-c2sc(N)nc2-c2cccc(C)c2)ccn1 [Example Compound 23-3, N-[4-[2-amino-4-(3-methylphenyl)-1,3-thiazol-5-yl]-2-pyridyl]-N-(2-methoxybenzyl)amine]	158 to 159
Cc1cccc(-c2nc(N)sc2-c2ccnc(NCc3ccc(Cl)cc3)c2)c1 [Example Compound 23-4, N-[4-[2-amino-4-(3-methylphenyl)-1,3-thiazol-5-yl]-2-pyridyl]-N-(4-chlorobenzyl)amine]	182 to 183
Cc1cccc(-c2nc(N)sc2-c2ccnc(NCc3cccc(Cl)c3)c2)c1 [Example Compound 23-5, N-[4-[2-amino-4-(3-methylphenyl)-1,3-thiazol-5-yl]-2-pyridyl]-N-(3-chlorobenzyl)amine]	180 to 181
Cc1cccc(-c2nc(N)sc2-c2ccnc(N[C@H](C)c3ccccc3)c2)c1 [Example Compound 23-6, (R)-N-[4-[2-amino-4-(3-methylphenyl)-1,3-thiazol-5-yl]-2-pyridyl]-N-(1-phenylethyl)amine]	94 to 98
Cc1cccc(-c2nc(N)sc2-c2ccnc(N[C@@H](C)c3ccccc3)c2)c1 [Example Compound 23-7, (S)-N-[4-[2-amino-4-(3-methylphenyl)-1,3-thiazol-5-yl]-2-pyridyl]-N-(1-phenylethyl)amine]	93 to 96
Cc1cccc(-c2nc(N)sc2-c2ccnc(N(C)Cc3ccccc3)c2)c1 [Example Compound 23-8, N-[4-[2-amino-4-(3-methylphenyl)-1,3-thiazol-5-yl]-2-pyridyl]-N-benzyl-N-methylamine]	138 to 140
COc1cccc(-c2nc(N)sc2-c2ccnc(NCc3ccccc3)c2)c1 [Example Compound 24, N-[4-[2-amino-4-(3-methoxyphenyl)-1,3-thiazol-5-yl]-2-pyridyl]-N-benzylamine]	217 to 218
Cc1cccc(-c2nc(-c3ccc(S(C)(=O)=O)cc3)sc2-c2ccnc(NCc3ccc(F)cc3)c2)c1 [Example Compound 25-2, N-(4-fluorobenzyl)-N-[4-[4-(3-methylphenyl)-2-(4-methylsulfonylphenyl)-1,3-thiazol-5-yl]-2-pyridyl]amine]	155 to 158
Cc1cccc(-c2nc(-c3ccc(S(C)(=O)=O)cc3)sc2-c2ccnc(N(C)Cc3ccccc3)c2)c1 [Example Compound 25-3, N-benzyl-N-methyl-N-[4-[4-(3-methylphenyl)-2-(4-methylsulfonylphenyl)-1,3-thiazol-5-yl]-2-pyridyl]amine]	165 to 166
Cc1cccc(-c2nc(-c3ccc(S(C)(=O)=O)cc3)sc2-c2ccnc(N(C)CCc3ccccc3)c2)c1 [Example Compound 25-4, N-methyl-N-[4-[4-(3-methylphenyl)-2-(4-methylsulfonylphenyl)-1,3-thiazol-5-yl]-2-pyridyl]-N-(2-phenylethyl)amine]	116 to 117
Cc1cccc(-c2nc(-c3ccc(S(C)(=O)=O)cc3)sc2-c2ccnc(NCc3cccs3)c2)c1 [Example Compound 25-5, N-[4-[4-(3-methylphenyl)-2-(4-methylsulfonylphenyl)-1,3-thiazol-5-yl]-2-pyridyl]-N-(2-thienylmethyl)amine]	107 to 109

tested on: TNF-α production in THP-1 cells; assay: Measurement of inhibiting activity of TNF-α production; format: cell-based; details: Homo sapiens, LPS 5 μg/mL, 4 hours, TNF-α in supernatant by ELISA, read-out: IC50 (concentration necessary for inhibiting TNF-α production by 50%)
Experimental: Measurement of Inhibiting Activity of TNF-α Production
After THP-1 cells which had been cultured on PRMI 1640 medium (manufactured by Life Technologies, Inc.) containing 1% non-activated bovine fetal serum (manufactured by Life Technologies, Inc., U.S.A.) and 10 mM HEPES (pH 7.5) seeded on a 96-well plate to 1×10^5 cells/well, 1 μL test compound dissolved in DMSO was added to there. After incubation at 37° C. for 1 hour in a CO2 incubator, LPS (Wako Pure Chemicals) was added to the final concentration 5 μg/mL. After cultured at 37° C. for 4 hours in a CO2 incubator, the supernatant was obtained by centrifugation. The concentration of TNF-α in the supernatant was measured with ELISA (R&D System, Quantikine Kit). The concentration (IC50 value) necessary for inhibiting TNF-α production by 50% was calculated by PRIMS 2.01 (Graphpad Software).

SMILES	pIC50
COc1ccc(-c2nc(NC(=O)c3cccnc3)sc2-c2ccnc(NC(=O)c3cccnc3)c2)cc1 [Example 3, N-[4-(4-methoxypheny)-5-[2-[(3-pyridylcarbonylamino)]-4-pyridyl]-1,3-thiazol-2-yl]nicotinamide]	7.59
COc1ccc(-c2nc(N)sc2-c2ccnc(NC(=O)c3ccccc3)c2)cc1 [Example 4, N-[4-[2-amino-4-(4-methoxyphenyl)-1,3-thiazol-5-yl]-2-pyridyl]benzamide]	7.85
Cc1cc(C)cc(-c2nc(N)sc2-c2ccnc(NCc3ccccc3)c2)c1 [Example 6, N-[4-[2-amino-4-(3,5-dimethylphenyl)-1,3-thiazol-5-yl]-2-pyridyl]benzylamine]	6.85
